{"source": "patent US20170275298A1", "about": "“INHIBITORS OF THE RENAL OUTER MEDULLARY POTASSIUM CHANNEL” (Merck Sharp & Dohme Corp., priority 2014, published 2017)", "data": [{"biological_target": "T1, hROMK (hKir1.1) (Homo sapiens, UniProt P48048)", "T1 construct": "expressed in transfected cells", "T1 sequence (P48048 1-391)": "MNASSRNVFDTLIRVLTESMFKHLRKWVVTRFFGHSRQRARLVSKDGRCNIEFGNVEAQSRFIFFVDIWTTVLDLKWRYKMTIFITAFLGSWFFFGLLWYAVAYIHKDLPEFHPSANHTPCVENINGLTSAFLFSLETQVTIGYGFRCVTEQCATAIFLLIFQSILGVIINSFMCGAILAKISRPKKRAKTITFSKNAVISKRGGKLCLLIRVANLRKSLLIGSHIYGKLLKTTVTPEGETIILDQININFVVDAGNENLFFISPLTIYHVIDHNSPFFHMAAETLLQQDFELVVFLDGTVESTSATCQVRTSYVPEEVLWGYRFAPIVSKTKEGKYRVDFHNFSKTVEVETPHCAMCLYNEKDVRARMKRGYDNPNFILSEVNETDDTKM", "experiment": "Thallium Flux Assay (ROMK channel functional thallium flux assay)", "format": "cell-based", "conditions": "HEK293 cells stably expressing hROMK (hKir1.1); FluxOR thallium flux, FLIPR-Tetra, 30 min compound incubation; read-out: ROMK TI IC50", "outline": "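HEK293 cells stably expressing hROMK (hKir1.1) loaded with FluxOR dye 90 min at ambient temperature, then compound 30 min before thallium/potassium stimulant (final 3 mM Tl/0.3 mM K). ROMK-sensitive flux defined by 3 μM standard inhibitor; data as % fluorescence change.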", "units": {"IC50": "nM"}, "values": [{"smiles": "Cc1c([C@@H](O)CN2CCC3(CC2)CCN(c2ccc(OC(F)F)nc2)C3=O)ccc2c1COC2=O", "note": "[Example 76, (R)-2-(6-(difluoromethoxy)pyridin-3-yl)-8-(2-hydroxy-2-(4-methyl-1-oxo-1,3-dihydroisobenzofuran-5-yl)ethyl)-2,8-diazaspiro[4.5]decan-1-one]", "IC50": 320}, {"smiles": "COc1ccncc1N1CCC2(CCN(C[C@H](O)c3ccc4c(c3C)COC4=O)CC2)C1=O", "note": "[Example 77, (R)-8-(2-hydroxy-2-(4-methyl-1-oxo-1,3-dihydroisobenzofuran-5-yl)ethyl)-2-(4-methoxypyridin-3-yl)-2,8-diazaspiro[4.5]decan-1-one]", "IC50": 697}, {"smiles": "Cc1c([C@@H](O)CN2CCC3(CC2)CC(=O)N(c2ccncc2)C3)ccc2c1COC2=O", "note": "[Example 79, (R)-8-(2-hydroxy-2-(4-methyl-1-oxo-1,3-dihydroisobenzofuran-5-yl)ethyl)-2-(pyridin-4-yl)-2,8-diazaspiro[4.5]decan-3-one]", "IC50": 56.7}, {"smiles": "COc1nccc(N2CCC3(CCN(C[C@H](O)c4ccc5c(c4C)COC5=O)CC3)C2=O)n1", "note": "[Example 80, (R)-8-(2-hydroxy-2-(4-methyl-1-oxo-1,3-dihydroisobenzofuran-5-yl)ethyl)-2-(2-methoxypyrimidin-4-yl)-2,8-diazaspiro[4.5]decan-1-one]", "IC50": 14.3}, {"smiles": "Cc1cc(N2CCCC3(CCN(C[C@H](O)c4ccc5c(c4C)COC5=O)CC3)C2=O)sn1", "note": "[Example 81, (R)-9-(2-hydroxy-2-(4-methyl-1-oxo-1,3-dihydroisobenzofuran-5-yl)ethyl)-2-(3-methylisothiazol-5-yl)-2,9-diazaspiro[5.5]undecan-1-one]", "IC50": 175}, {"smiles": "Cc1c([C@@H](O)CN2CCC3(CC2)CCN(c2ccc(=O)n(C)c2)C3=O)ccc2c1COC2=O", "note": "[Example 82, (R)-8-(2-hydroxy-2-(4-methyl-1-oxo-1,3-dihydroisobenzofuran-5-yl)ethyl)-2-(1-methyl-6-oxo-1,6-dihydropyridin-3-yl)-2,8-diazaspiro[4.5]decan-1-one]", "IC50": 424}, {"smiles": "Cc1c([C@@H](O)CN2CCC3(CC2)CCN(c2nc(CO)ns2)C3=O)ccc2c1COC2=O", "note": "[Example 83, (R)-8-(2-hydroxy-2-(4-methyl-1-oxo-1,3-dihydroisobenzofuran-5-yl)ethyl)-2-(3-(hydroxymethyl)-1,2,4-thiadiazol-5-yl)-2,8-diazaspiro[4.5]decan-1-one]", "IC50": 832}, {"smiles": "COc1cc(N2CC3(CCN(C[C@H](O)c4ccc5c(c4C)COC5=O)CC3)CC2=O)ccn1", "note": "[Example 84, (R)-8-(2-hydroxy-2-(4-methyl-1-oxo-1,3-dihydroisobenzofuran-5-yl)ethyl)-2-(2-methoxypyridin-4-yl)-2,8-diazaspiro[4.5]decan-3-one]", "IC50": 149}, {"smiles": "Cc1c([C@@H](O)CN2CCC3(CCCN(c4ccncc4)C3=O)CC2)ccc2c1COC2=O", "note": "[Example 85, (R)-9-(2-hydroxy-2-(4-methyl-1-oxo-1,3-dihydroisobenzofuran-5-yl)ethyl)-2-(pyridin-4-yl)-2,9-diazaspiro[5.5]undecan-1-one]", "IC50": 801}, {"smiles": "Cc1c([C@@H](O)CN2CCC3(CC2)CN(c2ccncc2)C(=O)O3)ccc2c1COC2=O", "note": "[Example 86, (R)-8-(2-hydroxy-2-(4-methyl-1-oxo-1,3-dihydroisobenzofuran-5-yl)ethyl)-3-(pyridin-4-yl)-1-oxa-3,8-diazaspiro[4.5]decan-2-one]", "IC50": 561}, {"smiles": "Cc1c([C@@H](O)CN2CCC3(CC2)CCN(c2cc(C(F)(F)F)ncn2)C3=O)ccc2c1COC2=O", "note": "[Example 87, (R)-8-(2-hydroxy-2-(4-methyl-1-oxo-1,3-dihydroisobenzofuran-5-yl)ethyl)-2-(6-(trifluoromethyl)pyrimidin-4-yl)-2,8-diazaspiro[4.5]decan-1-one]", "IC50": 643}, {"smiles": "Cc1cc(N2CCC3(CCN(C[C@H](O)c4ccc5c(c4C)COC5=O)CC3)C2=O)ccn1", "note": "[Example 88, (R)-8-(2-hydroxy-2-(4-methyl-1-oxo-1,3-dihydroisobenzofuran-5-yl)ethyl)-2-(2-methylpyridin-4-yl)-2,8-diazaspiro[4.5]decan-1-one]", "IC50": 130}, {"smiles": "COc1nccc(N2CCC3(CCN(C[C@H](O)c4ccc(-n5cnnn5)nc4C)CC3)C2=O)n1", "note": "[Example 89, (R)-8-(2-hydroxy-2-(2-methyl-6-(1H-tetrazol-1-yl)pyridin-3-yl)ethyl)-2-(2-methoxypyrimidin-4-yl)-2,8-diazaspiro[4.5]decan-1-one]", "IC50": 787}, {"smiles": "Cc1c([C@@H](O)CN2CCC3(CC2)CCN(c2ccnnc2)C3=O)ccc2c1COC2=O", "note": "[Example 90, (R)-8-(2-hydroxy-2-(4-methyl-1-oxo-1,3-dihydroisobenzofuran-5-yl)ethyl)-2-(pyridazin-4-yl)-2,8-diazaspiro[4.5]decan-1-one]", "IC50": 120}, {"smiles": "Cc1c([C@@H](O)CN2CCC3(CC2)CC(=O)N(c2ccnc(Cl)n2)C3)ccc2c1COC2=O", "note": "[Example 91, (R)-2-(2-chloropyrimidin-4-yl)-8-(2-hydroxy-2-(4-methyl-1-oxo-1,3-dihydroisobenzofuran-5-yl)ethyl)-2,8-diazaspiro[4.5]decan-3-one]", "IC50": 775}, {"smiles": "Cc1c([C@@H](O)CN2CCC3(CC2)CCN(c2ccnc(Cl)n2)C3=O)ccc2c1COC2=O", "note": "[Example 92, (R)-2-(2-chloropyrimidin-4-yl)-8-(2-hydroxy-2-(4-methyl-1-oxo-1,3-dihydroisobenzofuran-5-yl)ethyl)-2,8-diazaspiro[4.5]decan-1-one]", "IC50": 110}, {"smiles": "Cc1nc(-n2cnnn2)ccc1[C@@H](O)CN1CCC2(CC1)CCN(c1ccc(=O)n(C)n1)C2=O", "note": "[Example 93, (R)-8-(2-hydroxy-2-(2-methyl-6-(1H-tetrazol-1-yl)pyridin-3-yl)ethyl)-2-(1-methyl-6-oxo-1,6-dihydropyridazin-3-yl)-2,8-diazaspiro[4.5]decan-1-one]", "IC50": 259}, {"smiles": "Cc1c([C@@H](O)CN2CCC3(CC2)CCN(c2cn(C)c(=O)cn2)C3=O)ccc2c1COC2=O", "note": "[Example 94, (R)-8-(2-hydroxy-2-(4-methyl-1-oxo-1,3-dihydroisobenzofuran-5-yl)ethyl)-2-(4-methyl-5-oxo-4,5-dihydropyrazin-2-yl)-2,8-diazaspiro[4.5]decan-1-one]", "IC50": 272}, {"smiles": "Cc1c([C@@H](O)CN2CCC3(CC2)CN(c2ccc(=O)n(C)n2)C(=O)O3)ccc2c1COC2=O", "note": "[Example 95, (R)-8-(2-hydroxy-2-(4-methyl-1-oxo-1,3-dihydroisobenzofuran-5-yl)ethyl)-3-(1-methyl-6-oxo-1,6-dihydropyridazin-3-yl)-1-oxa-3,8-diazaspiro[4.5]decan-2-one]", "IC50": 488}, {"smiles": "Cn1nc(N2CCC3(CCN(C[C@@H](O)c4cccc(-n5cnnn5)c4)CC3)C2=O)ccc1=O", "note": "[Example 96, (S)-8-(2-(3-(1H-tetrazol-1-yl)phenyl)-2-hydroxyethyl)-2-(1-methyl-6-oxo-1,6-dihydropyridazin-3-yl)-2,8-diazaspiro[4.5]decan-1-one]", "IC50": 702}, {"smiles": "Cc1c([C@@H](O)CN2CCC3(CC2)C[C@H](C)N(c2ccc(=O)n(C)n2)C3=O)ccc2c1COC2=O", "note": "[Example 97, (S)-8-((R)-2-hydroxy-2-(4-methyl-1-oxo-1,3-dihydroisobenzofuran-5-yl)ethyl)-3-methyl-2-(1-methyl-6-oxo-1,6-dihydropyridazin-3-yl)-2,8-diazaspiro[4.5]decan-1-one]", "IC50": 378}, {"smiles": "Cc1c([C@@H](O)CN2CCC3(CC2)C[C@@H](C)N(c2ccc(=O)n(C)n2)C3=O)ccc2c1COC2=O", "note": "[Example 98, (R)-8-((R)-2-hydroxy-2-(4-methyl-1-oxo-1,3-dihydroisobenzofuran-5-yl)ethyl)-3-methyl-2-(1-methyl-6-oxo-1,6-dihydropyridazin-3-yl)-2,8-diazaspiro[4.5]decan-1-one]", "IC50": 54.7}, {"smiles": "Cc1nc(-n2cnnn2)ccc1[C@@H](O)CN1CCC2(CC1)CCN(c1ncns1)C2=O", "note": "[Example 99, (R)-8-(2-hydroxy-2-(2-methyl-6-(1H-tetrazol-1-yl)pyridin-3-yl)ethyl)-2-(1,2,4-thiadiazol-5-yl)-2,8-diazaspiro[4.5]decan-1-one]", "IC50": 242}, {"smiles": "O=C1N(c2ccns2)CCC12CCN(C[C@H](O)c1ccc(-n3cnnn3)nc1)CC2", "note": "[Example 100, (R)-8-(2-(6-(1H-tetrazol-1-yl)pyridin-3-yl)-2-hydroxyethyl)-2-(isothiazol-5-yl)-2,8-diazaspiro[4.5]decan-1-one]", "IC50": 769}, {"smiles": "O=C1N(c2ccns2)CCC12CCN(C[C@@H](O)c1ccc(-n3cnnn3)nc1)CC2", "note": "[Example 101, (S)-8-(2-(6-(1H-tetrazol-1-yl)pyridin-3-yl)-2-hydroxyethyl)-2-(isothiazol-5-yl)-2,8-diazaspiro[4.5]decan-1-one]", "IC50": 203}, {"smiles": "Cc1c([C@@H](O)CN2CCC3(CC2)OCCN(c2ccc(=O)n(C)n2)C3=O)ccc2c1COC2=O", "note": "[Example 102, (R)-9-(2-hydroxy-2-(4-methyl-1-oxo-1,3-dihydroisobenzofuran-5-yl)ethyl)-4-(1-methyl-6-oxo-1,6-dihydropyridazin-3-yl)-1-oxa-4,9-diazaspiro[5.5]undecan-5-one]", "IC50": 349}, {"smiles": "Cc1c([C@@H](O)CN2CCC3(CC2)CCN(c2sncc2Br)C3=O)ccc2c1COC2=O", "note": "[Example 103, (R)-2-(4-bromoisothiazol-5-yl)-8-(2-hydroxy-2-(4-methyl-1-oxo-1,3-dihydroisobenzofuran-5-yl)ethyl)-2,8-diazaspiro[4.5]decan-1-one]", "IC50": 61.4}]}]}
